The target in this assay is Replicative DNA helicase DnaB (Mycobacterium tuberculosis (strain ATCC 25618 / H37Rv)) (UniProt P9WMR3). The experiment in a line: DnaB intein splicing inhibitors, dose response, biochemical, M. tuberculosis H37Rv, cell-free fluorescence (AID 449749).

Records with an inconclusive call do not appear. Activity calls are given as the source filed them. How the calls were made is not given here.

Replicative DNA helicase DnaB (Mycobacterium tuberculosis (strain ATCC 25618 / H37Rv)), sequence (P9WMR3 whole entry, looked up): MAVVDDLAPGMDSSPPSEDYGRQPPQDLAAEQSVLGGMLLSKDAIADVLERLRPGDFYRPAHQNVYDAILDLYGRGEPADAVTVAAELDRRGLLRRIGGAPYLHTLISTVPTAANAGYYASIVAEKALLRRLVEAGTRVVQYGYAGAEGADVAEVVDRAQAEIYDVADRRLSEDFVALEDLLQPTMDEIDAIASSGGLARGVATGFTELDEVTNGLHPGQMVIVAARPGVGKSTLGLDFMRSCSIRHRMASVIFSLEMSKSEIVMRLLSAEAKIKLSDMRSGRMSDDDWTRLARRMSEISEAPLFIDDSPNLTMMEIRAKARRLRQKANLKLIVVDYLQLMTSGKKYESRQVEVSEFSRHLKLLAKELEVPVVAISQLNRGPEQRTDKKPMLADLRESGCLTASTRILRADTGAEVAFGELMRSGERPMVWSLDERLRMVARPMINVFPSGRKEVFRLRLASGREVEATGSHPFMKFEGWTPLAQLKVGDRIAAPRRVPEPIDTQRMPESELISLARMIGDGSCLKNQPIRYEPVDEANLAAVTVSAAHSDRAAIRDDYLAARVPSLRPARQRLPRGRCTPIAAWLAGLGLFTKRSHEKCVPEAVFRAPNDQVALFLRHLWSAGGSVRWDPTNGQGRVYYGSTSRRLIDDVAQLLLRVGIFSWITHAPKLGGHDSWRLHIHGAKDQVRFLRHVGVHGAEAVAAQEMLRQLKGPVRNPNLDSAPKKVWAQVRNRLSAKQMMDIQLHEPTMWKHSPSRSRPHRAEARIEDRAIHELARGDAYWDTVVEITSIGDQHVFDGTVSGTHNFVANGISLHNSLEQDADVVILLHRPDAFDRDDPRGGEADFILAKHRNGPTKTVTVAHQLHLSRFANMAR

Take `COc1ccc2ccc3c(c2c1)N=C[C@]1(O3)N(C)c2ccccc2C1(C)C`: the AC50 is > 38 µM (inactive). Consider `Oc1cc(O)c2c(c1)O[C@H](c1ccc(O)c(O)c1)[C@H](O)C2`, for which the AC50 was > 38 µM (inactive).

As for `Cc1[nH][nH]c(=O)c1[C@@H](c1ccccc1[N+](=O)[O-])C(C#N)C#N`, the AC50 was > 38 µM (inactive). For `Cc1[nH][nH]c(=O)c1C(c1ccccc1[N+](=O)[O-])C(C#N)C#N` (centres undefined) the value was > 12 µM (inactive).

The values above are taken from PubChem BioAssay AID449749 (Broad Institute, 2010).
